Assay results reported in patent US20250313548A1 (Actio Biosciences, Inc., priority 2023, published 2025).

Target: human, KCNT1 (Homo sapiens (Human), UniProt Q5JUK3)
Experiment: FLIPR Tl/K Flux Assay
Format: cell-based
Details: HEK293 cells stably expressing human KCNT1; Tl+ flux stimulated with EC80 of agonist Loxapine
Method in brief: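 HEK293 cells stably expressing human KCNT1 were loaded with FLIPR potassium dye in HEPES/HBSS pH 7.4 with 5 mM probenecid, 1 h at 25 °C, then given test compound for 30 min at 25 °C. Tl+ flux was triggered with chloride-free buffer containing Tl+ and EC80 loxapine and read 160 s. IC50 came from Hill fits of % inhibition.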

Chain of human, KCNT1 (Q5JUK3 whole entry): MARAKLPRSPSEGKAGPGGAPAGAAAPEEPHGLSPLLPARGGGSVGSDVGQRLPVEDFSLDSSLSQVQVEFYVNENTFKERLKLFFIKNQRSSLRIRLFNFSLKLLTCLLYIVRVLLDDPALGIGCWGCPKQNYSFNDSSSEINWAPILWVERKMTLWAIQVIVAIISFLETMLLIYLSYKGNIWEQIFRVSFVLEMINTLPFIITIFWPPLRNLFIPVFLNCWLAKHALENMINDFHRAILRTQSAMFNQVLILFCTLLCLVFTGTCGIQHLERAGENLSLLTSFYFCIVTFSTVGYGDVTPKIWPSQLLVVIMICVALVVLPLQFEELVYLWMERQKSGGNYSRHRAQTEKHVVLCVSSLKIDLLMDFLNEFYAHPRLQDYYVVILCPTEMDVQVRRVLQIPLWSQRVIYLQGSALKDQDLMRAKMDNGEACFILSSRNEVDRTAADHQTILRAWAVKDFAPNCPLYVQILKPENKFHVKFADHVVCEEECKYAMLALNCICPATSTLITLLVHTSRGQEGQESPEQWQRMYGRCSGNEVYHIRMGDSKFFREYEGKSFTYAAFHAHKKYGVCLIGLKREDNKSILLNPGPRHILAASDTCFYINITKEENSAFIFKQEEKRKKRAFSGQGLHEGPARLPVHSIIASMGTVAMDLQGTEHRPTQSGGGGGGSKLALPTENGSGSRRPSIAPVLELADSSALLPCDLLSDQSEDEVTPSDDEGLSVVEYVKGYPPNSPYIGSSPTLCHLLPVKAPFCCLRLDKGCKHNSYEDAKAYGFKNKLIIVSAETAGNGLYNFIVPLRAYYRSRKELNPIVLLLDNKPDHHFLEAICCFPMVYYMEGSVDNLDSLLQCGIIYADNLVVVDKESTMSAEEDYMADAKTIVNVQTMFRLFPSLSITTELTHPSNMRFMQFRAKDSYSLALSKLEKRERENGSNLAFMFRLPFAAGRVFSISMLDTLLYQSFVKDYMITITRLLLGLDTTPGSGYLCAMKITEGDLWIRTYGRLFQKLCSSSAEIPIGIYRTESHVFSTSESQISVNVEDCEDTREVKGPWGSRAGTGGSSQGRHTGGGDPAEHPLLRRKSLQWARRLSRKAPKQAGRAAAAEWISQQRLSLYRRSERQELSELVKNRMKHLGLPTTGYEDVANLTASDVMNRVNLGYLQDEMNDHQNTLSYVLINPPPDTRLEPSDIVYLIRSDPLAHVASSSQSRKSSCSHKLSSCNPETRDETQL

O=C(N[C@H]1CCCc2nc(-c3cc(C4CC4)ncc3F)oc21)c1cccc(OC(F)(F)F)c1 [Compound I-159a, (S)-N-(2-(2-Cyclopropyl-5-fluoropyridin-4-yl)-4,5,6,7-tetrahydrobenzo[d]oxazol-7-yl)-3-(trifluoromethoxy)benzamide] and O=C(N[C@H]1CCCc2nc(-c3cc(C4CC4)ncc3F)oc21)c1cccc(C(F)(F)F)c1 [Compound I-165a, (S)-N-(2-(2-Cyclopropyl-5-fluoropyridin-4-yl)-4,5,6,7-tetrahydrobenzo[d]oxazol-7-yl)-3-(trifluoromethyl)benzamide] cannot be ordered by IC50: under 250 nM for the first, under 250 nM for the second.

N#Cc1cccc(C(=O)N[C@H]2CCCCc3oc(-c4ccnc(C(F)(F)F)c4)nc32)c1 [Compound I-160a, (S)-3-cyano-N-(2-(2-(trifluoromethyl)pyridin-4-yl)-5,6,7,8-tetrahydro-4H-cyclohepta[d]oxazol-4-yl)benzamide] and N#Cc1cccc(C(=O)N[C@@H]2CCCCc3oc(-c4ccnc(C(F)(F)F)c4)nc32)c1 [Compound I-160b, (R)-3-cyano-N-(2-(2-(trifluoromethyl)pyridin-4-yl)-5,6,7,8-tetrahydro-4H-cyclohepta[d]oxazol-4-yl)benzamide] cannot be ordered by IC50: under 250 nM for the first, under 250 nM for the second.

Compared with COc1cc(-c2nc3c(o2)[C@@H](NC(=O)c2cncc(C(F)(F)F)n2)CCC3)c(Cl)cn1 [Compound I-161a, (S)-N-(2-(5-Chloro-2-methoxypyridin-4-yl)-4,5,6,7-tetrahydrobenzo[d]oxazol-7-yl)-6-(trifluoromethyl)pyrazine-2-carboxamide], COc1cc(-c2nc3c(o2)[C@@H](NC(=O)c2cccc(C(F)(F)F)c2)CCC3)c(Cl)cn1 [Compound I-167a, (S)-N-(2-(5-Chloro-2-methoxypyridin-4-yl)-4,5,6,7-tetrahydrobenzo[d]oxazol-7-yl)-3-(trifluoromethyl)benzamide] is lower in IC50: 250 to 500 nM for the first, under 250 nM for the second.

COc1cc(-c2nc3c(o2)[C@@H](NC(=O)c2cc(Cl)cc(Cl)c2)CCC3)c(Cl)cn1 [Compound I-162a, (S)-3,5-Dichloro-N-(2-(5-chloro-2-methoxypyridin-4-yl)-4,5,6,7-tetrahydrobenzo[d]oxazol-7-yl)benzamide] and COc1cc(-c2nc3c(o2)[C@@H](NC(=O)c2ccnc(OC(F)(F)F)c2)CCC3)c(Cl)cn1 [Compound I-163a] cannot be ordered by IC50: under 250 nM for the first, under 250 nM for the second.

COc1cc(-c2nc3c(o2)[C@@H](NC(=O)c2cccc(OC(F)(F)F)c2)CCC3)c(Cl)cn1 [Compound I-164a, (S)-N-(2-(5-Chloro-2-methoxypyridin-4-yl)-4,5,6,7-tetrahydrobenzo[d]oxazol-7-yl)-3-(trifluoromethoxy)benzamide] and COc1cc(-c2nc3c(o2)[C@@H](NC(=O)c2cccc(C(F)(F)F)c2)CCC3)ccn1 [Compound I-168a, (S)-N-(2-(2-Methoxypyridin-4-yl)-4,5,6,7-tetrahydrobenzo[d]oxazol-7-yl)-3-(trifluoromethyl)benzamide] cannot be ordered by IC50: under 250 nM for the first, under 250 nM for the second.

Cn1nc(C(F)(F)F)cc1C(=O)N[C@H]1CCCc2nc(-c3cc(C4CC4)ncc3F)oc21 [Compound I-166a, (S)—N-(2-(2-Cyclopropyl-5-fluoropyridin-4-yl)-4,5,6,7-tetrahydrobenzo[d]oxazol-7-yl)-1-methyl-3-(trifluoromethyl)-1H-pyrazole-5-carboxamide] and O=C(N[C@H]1CCCc2nc(-c3ccnc(C4CC4)c3)oc21)c1ccnc(OC(F)(F)F)c1 [Compound I-169a, (S)-N-(2-(2-Cyclopropylpyridin-4-yl)-4,5,6,7-tetrahydrobenzo[d]oxazol-7-yl)-2-(trifluoromethoxy)isonicotinamide] cannot be ordered by IC50: under 250 nM for the first, under 250 nM for the second.

For O=C(N[C@H]1CCCc2nc(-c3ccnc(C4CC4)c3)oc21)c1cccc(OC(F)(F)F)c1 [Compound I-170a, (S)-N-(2-(2-Cyclopropylpyridin-4-yl)-4,5,6,7-tetrahydrobenzo[d]oxazol-7-yl)-3-(trifluoromethoxy)benzamide], the IC50 was under 250 nM.
